From patent US8648094B2, “IAP BIR domain binding compounds” (Pharmascience, Inc., priority 2006, dated 2014) come the findings set out here.

The subject of assay [1] is A2780S ovarian cells. Nature of the assay: Potentiation of TRAIL efficacy in survival assay. In kind it is cell-based. The settings on record: 10 nM of compound.
In assay [2] the test system is SKOV-3 cells. Nature of the assay: Survival MTT assay. The settings on record: Homo sapiens, SK-OV-3, 72 hours. In kind it is cell-based. The method, then:
(§1) One day prior the treatment with compound, 2000 to 4000 cells per well were plated in a tissue culture treated 96 well format dish with 100 uL of media and incubated at 37° C., 5% CO2. On the day of compound treatment, compounds were diluted with cell culture media to a working stock concentration of 2×. 100 ul of diluted compound were then added to each well. The treated plate was incubated for 72 hours at 37° C., 5% CO2. Upon incubation, the cell viability was assessed as follows; 20 uL of MTT reagent (5 mg/mL) were added per well to cell plate. The plate was incubated for 2 hrs at 37° C. in presence of 5% CO2. The supernatant was then removed from the plate and 100 uL of isopropanol was added. The absorbance was measured in a TECAN spectrophotometer at 570 nm. The percentage of viability was expressed in percentage of the signal obtained with non treated cells.

For assay [3], the system named is MDA-MB-231 cells. Nature of the assay: Survival MTT assay. The assay is classed as cell-based. The settings on record: Homo sapiens, 72 hours, read-out: MDA-MB231 EC50. The protocol: as §1
Background: Formazan colour is commonly taken as a measure of viable cells.

Assay [4] addresses T1, c-IAP1 (Homo sapiens, UniProt Q13490).
T1 construct: endogenous in cells; host or cells: HCT116
Nature of the assay: Detection of c-IAP1 in cells by western blotting. The assay is classed as cell-based. The settings on record: HCT116 cells, overnight treatment. The protocol: Detection of cell expressed XIAP and PARP were done by western blotting. Cells were plated at 300 000 cells/well in a 60 mm wells (6 wells plate dish). The next day the cells were treated with selected compound at the indicated concentration. […] The resulting pellet was rinsed twice with cold TBS. The final washed pellet of cells was the lysed with 250 ul Lysis buffer (NP-40, glycerol, 1% of a protease inhibitor cocktail (Sigma)), placed at 4° C. for 25 min with gentle shaking. The cells extract was centrifuged at 4° C. for 10 min at 10 000 rpm. Both the supernatant and the pellet were kept for western blotting analysis as described below. From the supernatant, the protein content was evaluated and about 50 ug of protein was fractionated onto a 10% SDS-PAGE. Pellets were washed with the lysis buffer and re-suspend into 50 ul of Lamelli buffer 1×, boiled and fractionated on SDS-PAGE. Upon electrophoresis each gel was electro-transferred onto a nitrocellulose membrane at 0.6 A for 2 hours. Membrane non-specific sites were blocked for 1 hours with 5% Skim milk in TBST (TBS containing 0.1% (v/v) Tween-20) at RT. For protein immuno-detection, membranes were incubated overnight with primary antibodies raised against various IAPs or caspase-3 or caspase-9 primary antibodies were incubated at 4° C. with shaking at dilutions as follows:
Upon overnight incubation, the membranes received three washes of 15 min in TBST then were incubated for 1 hour at room temperature in the presence of a secondary antibody coupled with HRP-enzyme (Chemicon) and diluted at 1/5 000. Upon incubation each membrane were washed three times with TBST and the immunoreactive bands were detected by addition of a luminescent substrate (ECL kit Amersham) and capture of signal on a X-RAY film for various time of exposure.
A general note: In western blotting, separated proteins are transferred to a membrane and probed.

Assay [5] deals with HCT116 colorectal cells. Nature of the assay: Potentiation of TRAIL efficacy in survival assay. The assay is classed as cell-based, human. The settings on record: 10 nM of compound. The method, then: Survival assays were preformed on the following transformed human cancer cell lines, MDA-MB-231, SKOV-3, H460, PC3, HCT-116, and SW480 cells. Cells were seeded in 96 well plates at a respective density of 5000 and 2000 cells per well and incubated at 37° C. in presence of 5% CO2 for 24 hours. Selected compounds were diluted into the media at various concentration ranging from 0.00001 uM up to 100 uM. Diluted compounds were added to the culture media. For the MDA-MB-231 SKOV3, H460, PC3, HCT-116, and SW480 cells, the compounds were added either alone or in presence of 1-3 ng/ml of TRAIL. After 48-72 hours cellular viability was evaluated by MTS based assays. A solution of [3-(4,5-dimethylthiazol-2-yl)-5-(3-carboxymethoxyphenyl)-2-(4-sulfophenyl)-2H-tetrazolium, inner salt; MTS] was added onto cells for a period of 1 to 4 hours. Upon incubation the amount of converted MTS was evaluated using a Tecan spectrophotometer set at 570 nm.

Assay [6] has as its system selected cell lines. Nature of the assay: Hollow fiber in vivo model. The settings on record: compared to fibers from vehicle treated control mice. The protocol: At day 1, selected cell lines are cultured and the fiber filled at a cell density of about 40,000 cells/fiber. At the day of operation (day 4), three fibers are implanted sub-cutaneous into 28-35 Nu/Nu CD-1 male mice. On day 5, mice start to receive daily injection via sub-cutaneous route of control vehicle or vehicle containing the selected compound at the appropriate concentration and/or injection of cytotoxic agent via intra-peritoneal route. Upon 4 days of consecutive treatments, the animals are sacrificed, each fiber is removed and the metabolic viability of the remaining cells determined by MTT assay. Efficacy of the compound is define as the difference between the vehicle-treated animal and the animal treated with the compound alone or the compound given in combination of the cytotoxic agent

T1 sequence (Q13490 whole entry): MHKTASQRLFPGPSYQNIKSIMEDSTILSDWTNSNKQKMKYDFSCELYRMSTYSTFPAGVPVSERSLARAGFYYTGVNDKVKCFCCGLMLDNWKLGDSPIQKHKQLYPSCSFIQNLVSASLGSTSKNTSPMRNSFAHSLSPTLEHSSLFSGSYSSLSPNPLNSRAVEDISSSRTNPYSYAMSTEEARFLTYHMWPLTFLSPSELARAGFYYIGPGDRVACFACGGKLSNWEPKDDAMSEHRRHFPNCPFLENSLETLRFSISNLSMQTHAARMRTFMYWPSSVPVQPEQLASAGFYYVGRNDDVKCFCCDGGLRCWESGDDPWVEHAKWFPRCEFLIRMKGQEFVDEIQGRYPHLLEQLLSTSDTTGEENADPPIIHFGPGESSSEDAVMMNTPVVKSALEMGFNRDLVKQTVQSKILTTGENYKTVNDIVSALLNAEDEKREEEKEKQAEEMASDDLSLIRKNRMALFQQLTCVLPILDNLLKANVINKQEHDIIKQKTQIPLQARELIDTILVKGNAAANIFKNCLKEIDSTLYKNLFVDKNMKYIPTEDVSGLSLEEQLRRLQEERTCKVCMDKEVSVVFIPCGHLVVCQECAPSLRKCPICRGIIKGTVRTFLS

As usually defined, the EC50 is the concentration at which the effect is half-maximal. As to `CN[C@@H](C)C(=O)N[C@H](C(=O)N1CCC[C@H]1CN(CCc1ccccc1)C(=O)CNC(=O)c1ccc(C(=O)NCC(=O)N(CCc2ccccc2)C[C@@H]2CCCN2C(=O)[C@@H](NC(=O)[C@H](C)NC)C(C)(C)C)cc1)C(C)(C)C` [Compound 35], the “potentiated TRAIL efficacy” value in assay [1] is recorded as “approximately 2 logs”. The concentration for a half-maximal effect (EC50) in assay [2] and in assay [3] was less than 10 nM each time.
Take `CN[C@@H](C)C(=O)N[C@H](C(=O)N1CCC[C@H]1CN(CCc1ccccc1)C(=O)c1ccc(C(=O)N(CCc2ccccc2)C[C@@H]2CCCN2C(=O)[C@@H](NC(=O)[C@H](C)NC)C(C)(C)C)s1)C(C)(C)C` [Compound 26]: the values for the half-maximal effective concentration (EC50) in assay [2] and in assay [3] were 10 to 25 nM and less than 10 nM, respectively.
For the compound `CN[C@@H](C)C(=O)N[C@H](C(=O)N1CCC[C@H]1CN(CCc1ccccc1)C(=O)CCNC(=O)c1ccc(C(=O)NCCC(=O)N(CCc2ccccc2)C[C@@H]2CCCN2C(=O)[C@@H](NC(=O)[C@H](C)NC)C(C)(C)C)cc1)C(C)(C)C` [Compound 91], the c-IAP1 levels result in assay [4] is listed as “reduced”. Besides, the EC50 in assay [2] lay within 10 to 25 nM.
On to `CN[C@@H](C)C(=O)N[C@H](C(=O)N1CCC[C@H]1CN(CCc1ccccc1)C(=O)CNC(=O)C(=O)NCC(=O)N(CCc1ccccc1)C[C@@H]1CCCN1C(=O)[C@@H](NC(=O)[C@H](C)NC)C(C)(C)C)C(C)(C)C` [Compound 31], for which the “potentiated TRAIL efficacy” value in assay [5] is recorded as “approximately 2 logs”. Besides, the c-IAP1 levels entry in assay [4] is reported as “reduced”. In assay [6], the “decrease in MTT signal in fibers from treated mice” value came out at 70%. For the same compound, the EC50 in assay [2] and in assay [3] was less than 10 nM throughout.
Regarding `CN[C@@H](C)C(=O)N[C@H](C(=O)N1CCC[C@H]1CN(CCCCc1ccccc1)C(=O)CCCCCCCCC(=O)N(CCCCc1ccccc1)C[C@@H]1CCCN1C(=O)[C@@H](NC(=O)[C@H](C)NC)C(C)(C)C)C(C)(C)C` [Compound 40], the c-IAP1 levels result in assay [4] is “reduced”.
For `CN[C@@H](C)C(=O)N[C@H](C(=O)N1CCC[C@H]1CN(CCc1ccc(C(F)(F)F)cc1)C(=O)CCCCCCCCC(=O)N(CCc1ccc(C(F)(F)F)cc1)C[C@@H]1CCCN1C(=O)[C@@H](NC(=O)[C@H](C)NC)C(C)(C)C)C(C)(C)C` [Compound 67], the c-IAP1 levels entry in assay [4] is on record as “reduced”.
For the compound `CN[C@@H](C)C(=O)N[C@H](C(=O)N1CCC[C@H]1CN(C[C@H](C)c1ccccc1)C(=O)CCCCCCCCC(=O)N(C[C@@H]1CCCN1C(=O)[C@@H](NC(=O)[C@H](C)NC)C(C)(C)C)C[C@H](C)c1ccccc1)C(C)(C)C` [Compound 21], the EC50 in assay [2] and in assay [3] was less than 10 nM each time.
For `CN[C@@H](C)C(=O)N[C@H](C(=O)N1CCC[C@H]1CN(Cc1cccc(C(F)(F)F)c1)C(=O)CCCCCCCCC(=O)N(Cc1cccc(C(F)(F)F)c1)C[C@@H]1CCCN1C(=O)[C@@H](NC(=O)[C@H](C)NC)C(C)(C)C)C(C)(C)C` [Compound 100], in assay [4], the c-IAP1 levels entry is “reduced”.
For `CN[C@@H](C)C(=O)N[C@H](C(=O)N1CCC[C@H]1CN(CCc1ccc(F)cc1)C(=O)CCCCCCCCC(=O)N(CCc1ccc(F)cc1)C[C@@H]1CCCN1C(=O)[C@@H](NC(=O)[C@H](C)NC)C(C)(C)C)C(C)(C)C` [Compound 29], the EC50 in assay [2] was 10 to 25 nM; in assay [3], less than 10 nM.
The like results for `CN[C@@H](C)C(=O)N[C@H](C(=O)N1CCC[C@H]1CN(CCc1ccccc1)C(=O)Nc1ccc(NC(=O)N(CCc2ccccc2)C[C@@H]2CCCN2C(=O)[C@@H](NC(=O)[C@H](C)NC)C(C)(C)C)cc1)C(C)(C)C` [Compound 20] were, in that order, 10 to 25 nM and less than 10 nM.
Take `CN[C@@H](C)C(=O)N[C@H](C(=O)N1CCC[C@H]1CN(CCc1ccccc1)C(=O)CNC(=O)c1ccc(-c2ccc(C(=O)NCC(=O)N(CCc3ccccc3)C[C@@H]3CCCN3C(=O)[C@@H](NC(=O)[C@H](C)NC)C(C)(C)C)cc2)cc1)C(C)(C)C` [Compound 45]: the c-IAP1 levels result in assay [4] is “reduced”. The compound also had an EC50 in assay [2] of less than 10 nM.
Turning to `CN[C@@H](C)C(=O)N[C@H](C(=O)N1CCC[C@H]1CN(CCc1ccccc1)C(=O)CNC(=O)c1cccc(C(=O)NCC(=O)N(CCc2ccccc2)C[C@@H]2CCCN2C(=O)[C@@H](NC(=O)[C@H](C)NC)C(C)(C)C)c1)C(C)(C)C` [Compound 44], the c-IAP1 levels entry in assay [4] is reported as “reduced”. In assay [2], this compound registered an EC50 of less than 10 nM.
Turning to `CN[C@@H](C)C(=O)N[C@H](C(=O)N1CCC[C@H]1CN(CCc1ccccc1)C(=O)c1ccc2cc(C(=O)N(CCc3ccccc3)C[C@@H]3CCCN3C(=O)[C@@H](NC(=O)[C@H](C)NC)C(C)(C)C)ccc2c1)C(C)(C)C` [Compound 56], the “decrease in MTT signal in fibers from treated mice” value in assay [6] was found to be 70%. This compound gave an EC50 in assay [2] of less than 10 nM.
In assay [2], `CN[C@@H](C)C(=O)N[C@H](C(=O)N1CCC[C@H]1CN(Cc1cccc(-c2ccccc2)c1)C(=O)CCCCCCCCC(=O)N(Cc1cccc(-c2ccccc2)c1)C[C@@H]1CCCN1C(=O)[C@@H](NC(=O)[C@H](C)NC)C(C)(C)C)C(C)(C)C` [Compound 75] registered an EC50 of 10 to 25 nM.
